The values below come from patent publication US12351556B2, “Pyridin-2(1H)one derivatives, their preparation and their use for the treatment of pain” (INSTITUT NATIONAL DE LA SANTE ET DE LA RECHERCHE MEDICALE …, priority 2019, dated 2025).

In assay [1] the test system is inflammatory MA (face CFA model). Kind of assay: Face Complete Freund's Adjuvant (CFA) model of inflammatory mechanical allodynia. Type of assay: in vivo. The note with it: rat, intracisternal 5 μL at 100 μM, 30 min before CFA. Here is the method: FIG. 1 illustrates the results obtained by the intracisternal application of compounds 19-24, 66-72 and 74-82. These compounds prevent face MA in a rat model of inflammatory pain (Complete Freund's Adjuvant (CFA), n=4-6 rats for each compound). For this assay, compounds (5 μL at 100 μM) or control vehicle were intra-cisternally administred 30 min before CFA injection.
Face Complete Freund's Adjuvant (CFA) Model.
CFA (Becton Dickinson) was dissolved in saline solution containing Tween 80 and paraffin oil and conserved at 4° C. For the behavioral tests, animals were briefly (<2 min) anesthetized using a mask with 2% isoflurane and received a subcutaneous injection of 25 μL of CFA (2.5 mg/kg) solution into the right vibrissa pad using a 27 Ga needle coupled to a 25 μL Hamilton syringe, as described previously. After injection, animals were awakened from anesthesia and placed in the behavioral experimental room, followed by a 120 min mechanical testing period.
Intracisternal Injection:
For investigating the effects of synthetized compounds upon mechanical allodynia, animals were briefly (<2 min) anesthetized using a mask with 2% isoflurane and received an intracisternal injection of 5 μL of compound (100 μM) or vehicle alone (saline+1% DMSO) using a 10 μL Hamilton syringe. After recovery (<2 min), rats were placed in an observation field (0.6×0.6 m square) under red light for a period test. 6-g von Frey filament was gently applied every 15 or 30 min onto the orofacial region by a first experimenter. The behavioral responses were observed and quantified by a second experimenter (see below).
Behavioral Responses to Normally Innocuous (6-g Von Frey Filament) Mechanical Stimulation.
The behavioral responses procedure was previously developed by Vos et al. 1994. A rat's response to mechanical stimulation consisted of one or more of the following elements: (1) detection, rat turn head toward stimulus; (2) withdrawal reaction, rat pull paw away or turn head away or pull it briskly backward when stimulation is applied (a withdrawal reaction is assumed to include a detection element preceding the head withdrawal and therefore consists of two responses elements); (3) escape/attack, rats avoid further contact with the stimulus, either passively by moving their bodies away from the stimulus, or actively by attacking the tip of the […]; (4) asymmetric grooming, rats display an uninterrupted series of at least three wash strokes directed to the stimulated area.
The in vivo efficacy of some compounds was evaluated on a rat model of inflammatory MA (face CFA model; Alba-Delgado et al J. Neurosci. 2018, 38, 10489-10504) (FIG. 1). After receiving a subcutaneous injection of 25 μL of CFA (2.5 mg/kg) into the right vibrissa pad, rats develop a MA that lasts days. […] In this model of inflammatory MA, MA was suppressed in compound 69 treated rats, in comparison to animals treated with vehicle (FIG. 2A).

The target of a further assay is p38α MAPK (Homo sapiens (Human), UniProt Q16539). Nature of the assay: p38 alpha IC50. Type of assay: biochemical. The settings on record: p38 alpha; read-out: Mean IC50. Here is the method:
Studies were undertaken to identify the possible biological target(s) of compound 69. The activation in neurons of PK such as PKCγ, ERK or p38 MAPK can contribute to pain hypersensitivity. Therefore, it was decided to screen compound 69 toward a panel of 50 PKs that provide a representative sampling of the human kinome (FIG. 3, Table 3) (Biochem. J. 2007, 408, 297-315). In this panel, p38α MAPK was identified as the privileged target, with 19% of kinase residual activity at 10 μM compound concentration.
The selectivity of compound 69 was evaluated at 1 μM toward another panel containing all four p38 MAPK isoforms, ERK1, ERK2 as well as other protein kinases close to p38α MAPK in the kinome phylogenetic tree (FIG. 4, Table 4). […] Its IC50 toward p38α MAPK was determined, showing a value in the micromolar range (IC50=3.0±0.1 μM).

“Also recorded” adds a separate entry of the source.

Chain of p38α MAPK (Q16539 whole entry): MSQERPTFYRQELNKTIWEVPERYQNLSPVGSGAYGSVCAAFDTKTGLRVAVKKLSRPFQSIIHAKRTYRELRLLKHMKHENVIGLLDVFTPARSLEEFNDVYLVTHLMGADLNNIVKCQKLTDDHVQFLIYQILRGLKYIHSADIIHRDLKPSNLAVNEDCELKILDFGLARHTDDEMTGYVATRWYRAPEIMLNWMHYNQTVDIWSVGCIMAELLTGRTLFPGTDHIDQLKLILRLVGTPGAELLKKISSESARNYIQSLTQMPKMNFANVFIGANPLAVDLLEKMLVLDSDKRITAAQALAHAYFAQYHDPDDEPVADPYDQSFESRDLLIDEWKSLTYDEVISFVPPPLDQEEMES

As for `O=c1[nH]cc(Nc2ccccc2)cc1-c1ccncc1` [Compound 21, 5-(Phenylamino)-[3,4′-bipyridin]-2(1H)-one], the “prevention of inflammatory MA (allodynic score, 6-g von Frey filament)” value (“prevention of inflammatory MA” for short) in assay [1] is “comparable gains of activity”. For the molecule `O=c1[nH]cc(Nc2ccccc2)cc1-c1cccc2cccnc12` [Compound 23, 5-(Phenylamino)-3-(quinolin-8-yl)pyridin-2(1H)-one], the “prevention of inflammatory MA” value in assay [1] is “prevented the development of inflammatory MA”. Same read-out and setting: with `O=c1[nH]cc(Nc2ccccc2)cc1-c1cncnc1` [Compound 24, 5-(Phenylamino)-3-(pyrimidin-5-yl)pyridin-2(1H)-one] the entry was “prevented the development of inflammatory MA”. Take `CCOC(=O)c1ccccc1-c1cc(Nc2ccccc2)c[nH]c1=O` [Compound 70, Ethyl 2-(2-oxo-5-(phenylamino)-1,2-dihydropyridin-3-yl)benzoate]: the “prevention of inflammatory MA” value in assay [1] is recorded as “high activities”. Same read-out and setting: with `O=c1[nH]cc(Nc2ccccc2)cc1-c1ccccc1[N+](=O)[O-]` [Compound 72, 3-(2-Nitrophenyl)-5-(phenylamino)pyridin-2(1H)-one] the entry was “prevented the development of inflammatory MA”; with `CC(=O)c1cccc(-c2cc(Nc3ccccc3)c[nH]c2=O)c1` [Compound 75, 3-(3-Acetylphenyl)-5-(phenylamino)pyridin-2(1H)-one], “prevented the development of inflammatory MA”. Consider `Cc1ccc(-c2cc(Nc3ccccc3)c[nH]c2=O)cc1` [Compound 77, 5-(Phenylamino)-3-(p-tolyl)pyridin-2(1H)-one], for which the “prevention of inflammatory MA” value in assay [1] is listed as “prevented the development of inflammatory MA; also recorded: comparable gains of activity”. Same read-out and setting: in the case of `O=c1[nH]cc(Nc2ccccc2)cc1-c1ccc(OC(F)(F)F)cc1` [Compound 79, 5-(Phenylamino)-3-(4-(trifluoromethoxy)phenyl)pyridin-2(1H)-one] it was “prevented the development of inflammatory MA”; in that of `NC(=O)c1ccc(-c2cc(Nc3ccccc3)c[nH]c2=O)cc1` [Compound 81, 4-(2-Oxo-5-(phenylamino)-1,2-dihydropyridin-3-yl)benzamide], “prevented the development of inflammatory MA”; in that of `O=c1[nH]cc(Nc2ccccc2)cc1-c1ccc(F)cc1F` [Compound 82, 3-(2,4-Difluorophenyl)-5-(phenylamino)pyridin-2(1H)-one], “prevented the development of inflammatory MA”. Regarding `O=c1[nH]cc(Nc2ccccc2F)cc1-c1cccc2[nH]ccc12` [Compound 118, 5-((2-Fluorophenyl)amino)-3-(1H-indol-4-yl)pyridin-2(1H)-one], the 50% inhibitory concentration (IC50) at p38α MAPK was 230 nM.

As for `O=c1[nH]cc(Nc2cccc(F)c2)cc1-c1cccc2[nH]ccc12` [Compound 119, 5-((3-Fluorophenyl)amino)-3-(1H-indol-4-yl)pyridin-2(1H)-one], on p38α MAPK, the IC50 turned out to be 1420 nM. As to `O=c1[nH]cc(Nc2ccc(F)cc2)cc1-c1cccc2[nH]ccc12` [Compound 120, 5-((4-Fluorophenyl)amino)-3-(1H-indol-4-yl)pyridin-2(1H)-one], the half-maximal inhibitory concentration (IC50) on p38α MAPK amounted to 430 nM. Turning to `COc1ccccc1Nc1c[nH]c(=O)c(-c2cccc3[nH]ccc23)c1` [Compound 121, 3-(1H-Indol-4-yl)-5-((2-methoxyphenyl)amino)pyridin-2(1H)-one], the IC50 on p38α MAPK was found to be 5250 nM. Same read-out and setting: in the case of `COc1cccc(Nc2c[nH]c(=O)c(-c3cccc4[nH]ccc34)c2)c1` [Compound 122, 3-(1H-Indol-4-yl)-5-((3-methoxyphenyl)amino)pyridin-2(1H)-one] it was 5530 nM; in that of `COc1ccc(Nc2c[nH]c(=O)c(-c3cccc4[nH]ccc34)c2)cc1` [Compound 123, 3-(1H-Indol-4-yl)-5-((4-methoxyphenyl)amino)pyridin-2(1H)-one], 3670 nM. For `Cc1ccccc1Nc1c[nH]c(=O)c(-c2cccc3[nH]ccc23)c1` [Compound 130, 3-(1H-Indol-4-yl)-5-(o-tolylamino)pyridin-2(1H)-one], the concentration for half-maximal inhibition (IC50) at p38α MAPK worked out at 1060 nM.

`O=c1[nH]cc(Nc2cccc(O)c2)cc1-c1cccc2[nH]ccc12` [Compound 134, 5-((3-hydroxyphenyl)amino)-3-(1H-indol-4-yl)pyridin-2(1H)-one]: the IC50 on p38α MAPK amounted to 1040 nM. Regarding `O=c1[nH]cc(Nc2ccccc2Br)cc1-c1cccc2[nH]ccc12` [Compound 141, 5-((2-Bromophenyl)amino)-3-(1H-indol-4-yl)pyridin-2(1H)-one], the IC50 at p38α MAPK was 2720 nM. Same read-out and setting: in the case of `O=c1[nH]cc(Nc2cccc(Br)c2)cc1-c1cccc2[nH]ccc12` [Compound 142, 5-((3-Bromophenyl)amino)-3-(1H-indol-4-yl)pyridin-2(1H)-one] it was 660 nM. `O=c1[nH]cc(Nc2ccc(Br)cc2)cc1-c1cccc2[nH]ccc12` [Compound 143, 5-((4-Bromophenyl)amino)-3-(1H-indol-4-yl)pyridin-2(1H)-one]: the IC50 on p38α MAPK stood at 2350 nM.

Usually IC50 stands for the concentration needed to halve the response being measured.
